Test results reported in US20160339005A1, “COMPOSITIONS AND METHODS FOR TREATING OCULAR DISEASES” (AKEBIA THERAPEUTICS, INC., priority 2014, published 2016).
Entries after “also recorded” stand apart in the source; their conditions may differ.

Test system: choroidal neovascularization (CNV)
Assay: Rodent model of surgically (laser) induced CNV, intravitreal injection, fluorescein angiography lesion areas
Type: in vivo, Brown Norway rats
Design: Mean of lesion areas, Left Eye (OS) / Mean of lesion areas, Both Eyes (OU): unit not given here
Conditions: for fluorescein leakage in fluorescein angiography images: sample animal
Source text: In one example, twenty-four (24) naïve, male Brown Norway rats, 225-250 g at study start, are acclimated for a minimum of 5 days prior to dosing. Animals are weighed prior to dosing and at euthanasia. All animals undergo pre-screening ophthalmic examinations prior to study start as follows:
CNV is then induced via laser treatment (e.g. laser photocoagulation (20-100-μm spot size; 0.05-0.1 seconds duration; 50 to 200 mW) at six positions of the posterior pole in each eye) by a board certified veterinary ophthalmologist. Only animals in which the laser produces a bubble indicating rupture of Bruch's membrane, are included in the study. The compound is administered in suitable form of a Test Article. Test and Control Article treatment begin 3 days post laser induction. In another experiment, the Test and Control Article treatments begin prior to or immediately post induction, in yet other experiments, Test and Control Article treatments begin 10 days post induction. Study duration is 3 weeks, with the option to extend on a weekly basis based on extent of healing. Animals have clinical ophthalmic examinations and fluorescein angiography approximately 3 days post-induction (prior to Test Article treatment) to confirm disease state. The route of administration for Test Article(s) and vehicle control is intravitreal (IVT) injection on Day 1, which is approximately 3-4 days post-induction, once the CNV disease state has been confirmed.
In the first experiment, a low dose (5 μL at 3.7 mg/mL) and a high dose (5 μL at 7.8 mg/mL) of the compound are evaluated against vehicle control. The three treatment groups are (N=8 per group, 24 animals total):
A. Test Article—Low Dose (19 μg/eye)
B. Test Article—High Dose (39 μg/eye)
Daily gross ocular observations and general health observations are performed. Additional exams, performed weekly up to 3 weeks post Test Article dosing, include clinical ophthalmic exams, slit-lamp biomicroscopy, indirect ophthalmoscopy, and fluorescein staining if needed. Ocular findings are scored using the McDonald-Shadduck scoring system.
Fluorescein angiography (e.g. using Heidelberg SPECTRALIS® instrumentation) is performed to determine the degree of neovascularization (NV) in the retina and/or choroid. After fluorescein angiography, tissues are then harvested for possible future analysis (e.g. eyes are fixed in Davidson's solution and then transferred to 70% ethanol). Alternatively, the area of retinal and/or choroidal NV can be determined in various other ways. In one example, prior to sacrifice, the rodents are perfused with PBS containing 50 mg/mL of fluorescein-labeled dextran (2×10^6 Da average molecular mass). Alternatively, fluorescein-labeled Lycopersicon esculentum (tomato) lectin can be used. The choroids are then flat mounted and examined by fluorescence microscopy. A standard image analysis software is then used to measure the total area of retinal/choroidal NV with the investigator masked with respect to treatment group.
Results from an initial experiment treating animals with a control vehicle, low dose (19 μg/eye), or high dose (39 μg/eye) of Compound 7 are shown in FIGS. 1-6.
Animals were dosed on Day 3. […] The surrounding regions around the laser burn continued to show a higher fluorescence from Days 3-14. Day 9 intensities were attenuated due to the presence of fluorescein in both the anterior and posterior chambers of the eye.
FIGS. 4-6 and Tables 1-3 below show Mean (±SEM) of lesion areas in the right, left and both eyes, respectively.

[1] = High Dose (39 μg/eye, 5 μL at 7.8 mg/mL) IVT, Day 3 (prior to dosing)
[2] = High Dose (39 μg/eye, 5 μL at 7.8 mg/mL) IVT, Day 9
[3] = High Dose (39 μg/eye, 5 μL at 7.8 mg/mL) IVT, Day 14
[4] = High dose (39 μg/eye) IVT, Day 3 (baseline)
[5] = High dose (39 μg/eye) IVT, Day 9
[6] = High dose (39 μg/eye) IVT, Day 14
[7] = Low Dose (19 μg/eye, 5 μL at 3.7 mg/mL) IVT, Day 3 (prior to dosing)
[8] = Low Dose (19 μg/eye, 5 μL at 3.7 mg/mL) IVT, Day 9
[9] = Low Dose (19 μg/eye, 5 μL at 3.7 mg/mL) IVT, Day 14
[10] = Low dose (19 μg/eye) IVT, Day 3 (baseline)
[11] = Low dose (19 μg/eye) IVT, Day 9
[12] = Low dose (19 μg/eye) IVT, Day 14

Structure (SMILES): O=C(O)CNC(=O)c1ncc(-c2cccc(F)c2)cc1O [Compound 7, {[5-(3-fluorophenyl)-3-hydroxypyridine-2-carbonyl]amino} acetic acid]
- Mean of lesion areas, Both Eyes (OU) [1]: 4.21
- Mean of lesion areas, Left Eye (OS) [1]: 3.86
- Mean of lesion areas, Right Eye (OD) [1]: 4.56
- Mean of lesion areas, Both Eyes (OU) [2]: 1.71
- Mean of lesion areas, Left Eye (OS) [2]: 1.68
- Mean of lesion areas, Right Eye (OD) [2]: 1.75
- Mean of lesion areas, Both Eyes (OU) [3]: 0.71
- Mean of lesion areas, Left Eye (OS) [3]: 0.84
- Mean of lesion areas, Right Eye (OD) [3]: 0.58
- percentage area reduction of lesion areas, Both Eyes [4]: 0.00%
- percentage area reduction of lesion areas, Left Eye [4]: 0.00%
- percentage area reduction of lesion areas, Right Eye [4]: 0.00%
- percentage area reduction of lesion areas, Both Eyes [5]: −53.83%
- percentage area reduction of lesion areas, Left Eye [5]: −46.66%
- percentage area reduction of lesion areas, Right Eye [5]: −61.00%
- percentage area reduction of lesion areas, Both Eyes [6]: −83.63%
- percentage area reduction of lesion areas, Left Eye [6]: −79.77%
- percentage area reduction of lesion areas, Right Eye [6]: −87.49%
- Mean of lesion areas, Both Eyes (OU) [7]: 3.74
- Mean of lesion areas, Left Eye (OS) [7]: 3.48
- Mean of lesion areas, Right Eye (OD) [7]: 4.01
- Mean of lesion areas, Both Eyes (OU) [8]: 1.84
- Mean of lesion areas, Left Eye (OS) [8]: 1.81
- Mean of lesion areas, Right Eye (OD) [8]: 1.88
- Mean of lesion areas, Both Eyes (OU) [9]: 0.96
- Mean of lesion areas, Left Eye (OS) [9]: 1.02
- Mean of lesion areas, Right Eye (OD) [9]: 0.90
- percentage area reduction of lesion areas, Both Eyes [10]: 0.00%
- percentage area reduction of lesion areas, Left Eye [10]: 0.00%
- percentage area reduction of lesion areas, Right Eye [10]: 0.00%
- percentage area reduction of lesion areas, Both Eyes [11]: −48.43%
- percentage area reduction of lesion areas, Left Eye [11]: −44.39%
- percentage area reduction of lesion areas, Right Eye [11]: −52.47%
- percentage area reduction of lesion areas, Both Eyes [12]: −73.63%
- percentage area reduction of lesion areas, Left Eye [12]: −68.00%
- percentage area reduction of lesion areas, Right Eye [12]: −79.25%
- vascular leakage in the ocular vasculature compared with vehicle control (lesion areas over time) (low dose and high dose, FIGS. 4-6 (OD, OS, OU)): reduction of vascular leakage
- overall fluorescence and leakage compared to animals treated with vehicle control (low or high doses (19 or 39 μg/eye) IVT): reduced overall fluorescence and leakage
- fluorescein leakage in fluorescein angiography images (high dose (5 μL at 7.8 mg/mL), Day 9): Lower fluorescence leakage
- fluorescein leakage in fluorescein angiography images (high dose (5 μL at 7.8 mg/mL), Day 14): no fluorescein leakage was observed; also recorded: no fluorescence leakage
- fluorescein leakage in fluorescein angiography images (low dose (5 μL at 3.7 mg/mL), Day 9): Lower fluorescence leakage
- fluorescein leakage in fluorescein angiography images (low dose (5 μL at 3.7 mg/mL), Day 14): almost subsided completely; also recorded: minimal fluorescence leakage
